# Source: ChEMBL document CHEMBL1151757, “Synthesis, radiosynthesis, and biological evaluation of fluorine-18-labeled 2beta-carbo(fluoroalkoxy)-3beta-(3'-((Z)-2-haloethenyl)phenyl)nortropanes: candidate radioligands for in vivo imaging of the serotonin transporter with positron emission tomography” (J Med Chem, 2008)
# Test system: Putamen
# Assay: Drug uptake in anesthetized cynomolgus monkey brain putamen after 15.5 mins postinjection
# Assay type: ADME, organism-based, Macaca fascicularis
# Design: unit not given here
# Details: in vivo
row,SMILES,Drug uptake
1,O=C(OCC[18F])C1C2CCC(CC1c1ccc(/C=C\I)cc1)N2 (stereo not given),2.71

# Test system: Pons
# Assay: Drug uptake in anesthetized cynomolgus monkey brain pons after 65 mins postinjection
# Assay type: ADME, organism-based, Macaca fascicularis
# Details: in vivo
row,SMILES,Drug uptake
1,O=C(OCC[18F])C1C2CCC(CC1c1ccc(/C=C\I)cc1)N2 (stereo not given),3.35

# Test system: not listed separately
# Assay: Ratio of drug uptake in pons to cerebellum in anesthetized cynomolgus monkey after 6.5 mins postinjection
# Assay type: ADME, organism-based, Macaca fascicularis
# Details: in vivo
row,SMILES,Ratio
1,O=C(OCC[18F])C1C2CCC(CC1c1ccc(/C=C\I)cc1)N2 (stereo not given),0.8

# Test system: Thalamus
# Assay: Drug uptake in anesthetized cynomolgus monkey brain thalamus after 15.5 mins postinjection
# Assay type: ADME, organism-based, Macaca fascicularis
# Design: unit not given here
# Details: in vivo
row,SMILES,Drug uptake
1,O=C(OCC[18F])C1C2CCC(CC1c1ccc(/C=C\I)cc1)N2 (stereo not given),2.54

# Test system: Caudate
# Assay: Drug uptake in anesthetized cynomolgus monkey brain caudate after 145 mins postinjection
# Assay type: ADME, organism-based, Macaca fascicularis, Caudate nucleus
# Details: in vivo
row,SMILES,Drug uptake
1,O=C(OCC[18F])C1C2CCC(CC1c1ccc(/C=C\I)cc1)N2 (stereo not given),3.05

# Test system: Midbrain
# Assay: Drug uptake in anesthetized cynomolgus monkey brain midbrain after 205 mins postinjection
# Assay type: ADME, organism-based, Macaca fascicularis
# Details: in vivo
row,SMILES,Drug uptake
1,O=C(OCC[18F])C1C2CCC(CC1c1ccc(/C=C\I)cc1)N2 (stereo not given),4.57

# Test system: Thalamus
# Assay: Drug uptake in anesthetized cynomolgus monkey brain thalamus after 115 mins postinjection
# Assay type: ADME, organism-based, Macaca fascicularis
# Design: unit not given here
# Details: in vivo
row,SMILES,Drug uptake
1,O=C(OCC[18F])C1C2CCC(CC1c1ccc(/C=C\I)cc1)N2 (stereo not given),4.06

# Test system: Pons
# Assay: Drug uptake in anesthetized cynomolgus monkey brain pons after 215 mins postinjection
# Assay type: ADME, organism-based, Macaca fascicularis
# Details: in vivo
row,SMILES,Drug uptake
1,O=C(OCC[18F])C1C2CCC(CC1c1ccc(/C=C\I)cc1)N2 (stereo not given),3.39

# Test system: Medulla
# Assay: Drug uptake in anesthetized cynomolgus monkey brain medulla after 27.5 mins postinjection
# Assay type: ADME, organism-based, Macaca fascicularis
# Details: in vivo
row,SMILES,Drug uptake
1,O=C(OCC[18F])C1C2CCC(CC1c1ccc(/C=C\I)cc1)N2 (stereo not given),3.35

# Test system: not listed separately
# Assay: Ratio of drug uptake in occipital lobe to cerebellum in anesthetized cynomolgus monkey after 4.5 mins postinjection
# Assay type: ADME, organism-based, Macaca fascicularis
# Details: in vivo, 0.075 h
row,SMILES,Ratio
1,O=C(OCC[18F])C1C2CCC(CC1c1ccc(/C=C\I)cc1)N2 (stereo not given),0.8

# Test system: not listed separately
# Assay: Ratio of drug uptake in thalamus to cerebellum in anesthetized cynomolgus monkey after 155 mins postinjection
# Assay type: ADME, organism-based, Macaca fascicularis
# Details: in vivo
row,SMILES,Ratio
1,O=C(OCC[18F])C1C2CCC(CC1c1ccc(/C=C\I)cc1)N2 (stereo not given),2.7

# Test system: Midbrain
# Assay: Drug uptake in anesthetized cynomolgus monkey brain midbrain after 2.5 mins postinjection
# Assay type: ADME, organism-based, Macaca fascicularis
# Design: unit not given here
# Details: in vivo
row,SMILES,Drug uptake
1,O=C(OCC[18F])C1C2CCC(CC1c1ccc(/C=C\I)cc1)N2 (stereo not given),0.4

# Test system: not listed separately
# Assay: Drug uptake in anesthetized cynomolgus monkey brain frontal lobe after 195 mins postinjection
# Assay type: ADME, organism-based, Macaca fascicularis
# Details: in vivo, 3.25 h
row,SMILES,Drug uptake
1,O=C(OCC[18F])C1C2CCC(CC1c1ccc(/C=C\I)cc1)N2 (stereo not given),1.7

# Test system: not listed separately
# Assay: Ratio of drug uptake in pons to cerebellum in anesthetized cynomolgus monkey after 18.5 mins postinjection
# Assay type: ADME, organism-based, Macaca fascicularis
# Details: in vivo
row,SMILES,Ratio
1,O=C(OCC[18F])C1C2CCC(CC1c1ccc(/C=C\I)cc1)N2 (stereo not given),0.9

# Test system: not listed separately
# Assay: Ratio of drug uptake in putamen to cerebellum in anesthetized cynomolgus monkey after 45 mins postinjection
# Assay type: ADME, organism-based, Macaca fascicularis
# Details: in vivo, 0.75 h
row,SMILES,Ratio
1,O=C(OCC[18F])C1C2CCC(CC1c1ccc(/C=C\I)cc1)N2 (stereo not given),1.4

# Test system: Thalamus
# Assay: Drug uptake in anesthetized cynomolgus monkey brain thalamus after 125 mins postinjection
# Assay type: ADME, organism-based, Macaca fascicularis
# Design: unit not given here
# Details: in vivo
row,SMILES,Drug uptake
1,O=C(OCC[18F])C1C2CCC(CC1c1ccc(/C=C\I)cc1)N2 (stereo not given),4.04

# Test system: not listed separately
# Assay: Ratio of drug uptake in frontal lobe to cerebellum in anesthetized cynomolgus monkey after 205 mins postinjection
# Assay type: ADME, organism-based, Macaca fascicularis
# Details: in vivo
row,SMILES,Ratio
1,O=C(OCC[18F])C1C2CCC(CC1c1ccc(/C=C\I)cc1)N2 (stereo not given),1.4

# Test system: Pons
# Assay: Drug uptake in anesthetized cynomolgus monkey brain pons after 225 mins postinjection
# Assay type: ADME, organism-based, Macaca fascicularis
# Details: in vivo, 3.75 h
row,SMILES,Drug uptake
1,O=C(OCC[18F])C1C2CCC(CC1c1ccc(/C=C\I)cc1)N2 (stereo not given),3.34

# Test system: Putamen
# Assay: Drug uptake in anesthetized cynomolgus monkey brain putamen after 0.5 mins postinjection
# Assay type: ADME, organism-based, Macaca fascicularis
# Details: in vivo
row,SMILES,Drug uptake
1,O=C(OCC[18F])C1C2CCC(CC1c1ccc(/C=C\I)cc1)N2 (stereo not given),0

# Test system: Thalamus
# Assay: Drug uptake in anesthetized cynomolgus monkey brain thalamus after 27.5 mins postinjection
# Assay type: ADME, organism-based, Macaca fascicularis
# Design: unit not given here
# Details: in vivo
row,SMILES,Drug uptake
1,O=C(OCC[18F])C1C2CCC(CC1c1ccc(/C=C\I)cc1)N2 (stereo not given),3.06

# Test system: not listed separately
# Assay: Ratio of drug uptake in frontal lobe to cerebellum in anesthetized cynomolgus monkey after 95 mins postinjection
# Assay type: ADME, organism-based, Macaca fascicularis
# Details: in vivo
row,SMILES,Ratio
1,O=C(OCC[18F])C1C2CCC(CC1c1ccc(/C=C\I)cc1)N2 (stereo not given),0.9

# Test system: Medulla
# Assay: Drug uptake in anesthetized cynomolgus monkey brain medulla after 22.5 mins postinjection
# Assay type: ADME, organism-based, Macaca fascicularis
# Details: in vivo, 0.375 h
row,SMILES,Drug uptake
1,O=C(OCC[18F])C1C2CCC(CC1c1ccc(/C=C\I)cc1)N2 (stereo not given),3.09

# Test system: Caudate
# Assay: Drug uptake in anesthetized cynomolgus monkey brain caudate after 155 mins postinjection
# Assay type: ADME, organism-based, Macaca fascicularis, Caudate nucleus
# Details: in vivo
row,SMILES,Drug uptake
1,O=C(OCC[18F])C1C2CCC(CC1c1ccc(/C=C\I)cc1)N2 (stereo not given),3.03

# Test system: not listed separately
# Assay: Drug uptake in anesthetized cynomolgus monkey brain occipital lobe after 205 mins postinjection
# Assay type: ADME, organism-based, Macaca fascicularis
# Details: in vivo
row,SMILES,Drug uptake
1,O=C(OCC[18F])C1C2CCC(CC1c1ccc(/C=C\I)cc1)N2 (stereo not given),1.73

# Test system: Putamen
# Assay: Drug uptake in anesthetized cynomolgus monkey brain putamen after 22.5 mins postinjection
# Assay type: ADME, organism-based, Macaca fascicularis
# Design: unit not given here
# Details: in vivo, 0.375 h
row,SMILES,Drug uptake
1,O=C(OCC[18F])C1C2CCC(CC1c1ccc(/C=C\I)cc1)N2 (stereo not given),3.13
